From article PMC12491701, “Discovery of an APP-selective BACE1 inhibitor for Alzheimer's disease” (Neurotherapeutics, 2025) come the findings set out here.

Read-outs that look alike come from different tables or passages of the source.

Data set [1] in a line: Liver microsome stability assay. The data set is classed as in vitro ADME. The note with it: human, human liver microsomes, pH 7.4, human liver microsomes; read-out: Microsomal stability T1/2. As for the experimental part: Liver microsome stability assay
A 1 µL sample of 1 mM FAH65 and its enantiomers in 100% DMSO was added to 1 mL of 0.5 mg/mL human liver microsomes (Thermo Fisher Scientific, Cat# HMMPL) in PBS pH 7.4, 2 mM NADPH, and 2 mM MgCl2; and incubated at 37 °C for 120 min. Aliquots (50 µL) of the microsome solution were taken […]
quenching solution containing an internal standard. Solutions were clarified by centrifugation (16K x g, 5 min) and supernatants transferred to new tubes and lyophilized. Samples were reconstituted in 100 µL of 50/50/0.1 water/acetonitrile/formic acid prior to analysis via LC-MS/MS.
Normalized chromatographic peak areas were plotted at each time point and the half-life (t1/2) of compound in liver microsomes was determined by using the trendline equation to calculate the time at which compound abundance was 50% of that at timepoint 0 (T0).
One µL FAH65 and its enantiomers (1 mM in 100% DMSO) was added to human peripheral blood plasma (Cat#70039, Stemcell Technologies Inc) diluted 2-fold in PBS (1000 µL, pH 7.4) and incubated […]
and 180 min, and added to a 200 µL 100% acetonitrile reaction quenching solution containing an internal standard. Solutions were clarified by centrifugation (16K x g, 5 min) and supernatants were transferred to new tubes and lyophilized. […]

Data set [2] concerns the target T1, potassium channel hERG (human) (Homo sapiens, UniProt Q12809).
T1 construct: Eurofins (CEREP PanLabs)
Nature of the data set: hERG [3H] dofitilide binding assay. The text has this:
The raw data uncorrected for contribution of
Animals were euthanized at
biochemical analyses (Fig. S3).
at Lotus Separations (Princeton, NJ).

Data set [3] can be described thus: Efficacy testing in B254 mice. The data set is classed as in vivo, mouse. The conditions noted are these: both sexes, B254, mouse, brain, oral, 30 mg/kg BID, read-out: mean brain level of compound. The text has this:
(§1) B254 mice are an AD model comprising expression of human APP with Swedish and Indiana mutations along with a D664A substitution and endogenous murine tau, as described in Galvan et al.. In our in vivo studies, we detected impairment in learning and memory in B254 D664A mice at 5–6 months of age (end of chronic treatment) in the novel location and novel object spatial memory testing paradigms. We note that previous studies have reported conflicting findings for such impairments when using in the Morris Water Maze. […] In a later study performed by a different group, it was reported that at both 2–3 or 5–7 months of age B254 and J20 mice had similar abnormalities relative to non-transgenic mice in spatial and nonspatial learning and memory. Our findings were in alignment with the latter studies.
(§2) Male and female 4-5 month-old B254 mice in the subchronic and chronic treatment were administered FAH65 via pipette feeding by the method of Atcha et al. at a dose of 30 mg/kg BID (60 mg/kg/day). Mice were weighed before the first dose for the calculation of volume to be administered. The formulation used comprised FAH65 hydrochloride as a 40 mg/mL solution in water plus 30 mg/mL in strawberry syrup.
(§3) In the pilot subchronic study, mice were treated for 10 days, and in the follow-up study, for 26 days. One week before the end of the study, mice in the pilot study underwent Novel Object Recognition (NOR) memory testing, and mice in the follow-up chronic study underwent both NOR and Novel Location Recognition (NLR) testing as described elsewhere. Briefly, mice are introduced to two identical, parallel and evenly objects in an opaque 30 × 40 cm arena (box without a lid) with navigation marks on the wall, for 10 min. For Novel Location Recognition (NLR), after a 2.5-h interval, the mouse is returned to the arena wherein one identical object has been moved diagonally. The time spent and number of discreet interactions with the objects in the original location and in the new location over 10 min is recorded. The mouse is then removed from the arena, and after an additional 2.5-h interval, for the Novel Object Recognition (NOR) phase, is returned to the arena wherein the objects are in the original position, but one is a new, different object. The time spent and number of discreet interactions with the objects in the original location and in the new location over 10 min is recorded. The novelty preference was calculated by […].
(§4) For in vivo studies, Individual tissues were weighed and sonicated on ice with AlphaLISA Lysis Buffer complemented with HALT (Fisher catalog # 78446) to give a 10 % W/V sonicate. Total protein concentration was assessed by BCA assay (Fisher catalog # 23227) following manufacturer recommendations.
(§5) For the ELISA assay to assess sAPPβ levels in brain an IBL ELISA (kit #27733) specific for sAPPβ with the Swedish (K595 N/M596L) mutation that is present in the APP transgene of the mouse model used following the kit instructions. Briefly, 499 μL of EIA buffer was added to individual tubes for each sample, 1 μL of sample added, vortexed and centrifuged. To each assay plate well, 100 μL of sample was added, and the covered plate incubated overnight at 4 °C. The plate(s) was washed 4 times with 350 μL/well wash buffer, then 100 μL/well of labeled antibody added followed by incubation for 30 min at 4 °C. After five washes, 100 μL chromogen solution was added to each well and incubated for 30 min at RT in the dark. Stop solution (100 μL/well) was then added and the plate read at 450 nm. […]

In a further data set the test system is B254 mice. The data set can be described thus: Efficacy testing in B254 mice. The format is in vivo, mouse.
Text: as §1, §2, §3, §4, §5

Where [4] appears, read: chronic study, oral 30 mkd, 26 days.

T1 sequence (Q12809 whole entry): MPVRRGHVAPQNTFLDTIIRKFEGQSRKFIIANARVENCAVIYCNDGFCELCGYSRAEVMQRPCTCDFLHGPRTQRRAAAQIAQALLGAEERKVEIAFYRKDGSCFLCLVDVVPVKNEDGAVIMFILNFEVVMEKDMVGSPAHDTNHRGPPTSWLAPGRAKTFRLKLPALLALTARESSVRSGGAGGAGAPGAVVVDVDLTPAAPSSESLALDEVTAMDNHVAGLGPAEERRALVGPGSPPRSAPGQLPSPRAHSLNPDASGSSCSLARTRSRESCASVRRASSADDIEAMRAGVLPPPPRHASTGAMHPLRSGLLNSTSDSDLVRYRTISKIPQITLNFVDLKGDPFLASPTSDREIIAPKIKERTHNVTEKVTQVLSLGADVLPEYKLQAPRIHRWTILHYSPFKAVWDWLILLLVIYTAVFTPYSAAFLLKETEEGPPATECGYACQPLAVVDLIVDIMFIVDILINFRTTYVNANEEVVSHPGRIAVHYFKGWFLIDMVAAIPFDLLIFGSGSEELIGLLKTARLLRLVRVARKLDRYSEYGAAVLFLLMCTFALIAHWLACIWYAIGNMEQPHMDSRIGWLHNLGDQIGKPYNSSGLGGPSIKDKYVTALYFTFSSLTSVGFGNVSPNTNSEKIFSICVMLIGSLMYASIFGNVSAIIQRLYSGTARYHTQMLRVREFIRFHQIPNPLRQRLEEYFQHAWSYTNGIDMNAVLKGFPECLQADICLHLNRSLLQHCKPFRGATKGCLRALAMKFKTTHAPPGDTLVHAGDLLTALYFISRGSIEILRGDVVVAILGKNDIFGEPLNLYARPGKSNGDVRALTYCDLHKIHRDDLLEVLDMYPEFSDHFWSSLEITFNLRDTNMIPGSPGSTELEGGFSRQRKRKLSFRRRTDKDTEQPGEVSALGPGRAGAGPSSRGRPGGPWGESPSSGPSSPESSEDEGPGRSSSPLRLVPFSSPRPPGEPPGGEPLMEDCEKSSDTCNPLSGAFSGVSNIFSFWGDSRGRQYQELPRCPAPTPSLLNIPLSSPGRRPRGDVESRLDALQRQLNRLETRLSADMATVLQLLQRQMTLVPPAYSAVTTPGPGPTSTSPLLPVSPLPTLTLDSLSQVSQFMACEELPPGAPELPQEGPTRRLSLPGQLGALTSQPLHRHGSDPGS

Regarding `Cc1cc(C2(c3cccc(-c4cncnc4)c3)N=C(N)N(C)C2=O)ccc1OC(F)F` (stereo not shown) [FAH65], the half-life at 1 µM in data set [1] is 38 min. Also, in data set [2], the 50% effective concentration (EC50) was > 10 µM and the IC50 was > 10 µM. In addition, the concentration at 2 h in data set [3] (chronic, 2 h after last day dosing) was ~50 ng/g. Besides, the concentration at 2 h in data set [3] (subchronic, 2 h after the last dose) is ~20 ng/g. For the same molecule, in the data set on B254 mice (setting [4]), the “novelty preference in NOR vs. vehicle” value is listed as “significant increase” and the “novelty preference in Novel Location Recognition (NLR) vs. vehicle” value is reported as “significant increase”. Further, in the data set on B254 mice (chronic, 26 days), the “brain level of Aβ1-42 vs. vehicle” value is reported as “not significantly different”, the “brain level of sAPPβ vs. vehicle” value is recorded as “not significantly different”, the “sAPPα in brain tissue vs. vehicle” value is reported as “significantly higher” and the “sAPPβ/sAPPα ratio in brain tissue vs. vehicle” value is on record as “significantly lower”. Also, the “Novel Object Recognition (NOR) performance vs. vehicle” value in the data set with B254 mice (pilot subchronic study, oral 30 mkd, 10 days) is “not significantly increased”. The “GFAP, IP-10, Aβ1-38, Aβ1-40, Aβ1-42 and Aβ1-42/1-40 ratio in brain (MSD) vs. vehicle” value in the data set on B254 mice (subchronic study) is given as “no significant differences”. In the data set on B254 mice (subchronic, 10 days), the “APP β-CTF in brain tissue vs. vehicle” value is reported as “significant decrease”, the “Aβ 1-42 in brain vs. vehicle” value is reported as “not significant” and the “p-tau/t-tau ratio in brain vs. vehicle” value is given as “not significant”.
